Molecular target: ATP-dependent translocase ABCB1 (Homo sapiens, UniProt P08183)
Test: TP_TRANSPORTER: inhibition of Daunorubicin transport in G185 cells
Assay type: functional, cell-based
Conditions: mouse

Chain of ATP-dependent translocase ABCB1 (P08183 whole entry): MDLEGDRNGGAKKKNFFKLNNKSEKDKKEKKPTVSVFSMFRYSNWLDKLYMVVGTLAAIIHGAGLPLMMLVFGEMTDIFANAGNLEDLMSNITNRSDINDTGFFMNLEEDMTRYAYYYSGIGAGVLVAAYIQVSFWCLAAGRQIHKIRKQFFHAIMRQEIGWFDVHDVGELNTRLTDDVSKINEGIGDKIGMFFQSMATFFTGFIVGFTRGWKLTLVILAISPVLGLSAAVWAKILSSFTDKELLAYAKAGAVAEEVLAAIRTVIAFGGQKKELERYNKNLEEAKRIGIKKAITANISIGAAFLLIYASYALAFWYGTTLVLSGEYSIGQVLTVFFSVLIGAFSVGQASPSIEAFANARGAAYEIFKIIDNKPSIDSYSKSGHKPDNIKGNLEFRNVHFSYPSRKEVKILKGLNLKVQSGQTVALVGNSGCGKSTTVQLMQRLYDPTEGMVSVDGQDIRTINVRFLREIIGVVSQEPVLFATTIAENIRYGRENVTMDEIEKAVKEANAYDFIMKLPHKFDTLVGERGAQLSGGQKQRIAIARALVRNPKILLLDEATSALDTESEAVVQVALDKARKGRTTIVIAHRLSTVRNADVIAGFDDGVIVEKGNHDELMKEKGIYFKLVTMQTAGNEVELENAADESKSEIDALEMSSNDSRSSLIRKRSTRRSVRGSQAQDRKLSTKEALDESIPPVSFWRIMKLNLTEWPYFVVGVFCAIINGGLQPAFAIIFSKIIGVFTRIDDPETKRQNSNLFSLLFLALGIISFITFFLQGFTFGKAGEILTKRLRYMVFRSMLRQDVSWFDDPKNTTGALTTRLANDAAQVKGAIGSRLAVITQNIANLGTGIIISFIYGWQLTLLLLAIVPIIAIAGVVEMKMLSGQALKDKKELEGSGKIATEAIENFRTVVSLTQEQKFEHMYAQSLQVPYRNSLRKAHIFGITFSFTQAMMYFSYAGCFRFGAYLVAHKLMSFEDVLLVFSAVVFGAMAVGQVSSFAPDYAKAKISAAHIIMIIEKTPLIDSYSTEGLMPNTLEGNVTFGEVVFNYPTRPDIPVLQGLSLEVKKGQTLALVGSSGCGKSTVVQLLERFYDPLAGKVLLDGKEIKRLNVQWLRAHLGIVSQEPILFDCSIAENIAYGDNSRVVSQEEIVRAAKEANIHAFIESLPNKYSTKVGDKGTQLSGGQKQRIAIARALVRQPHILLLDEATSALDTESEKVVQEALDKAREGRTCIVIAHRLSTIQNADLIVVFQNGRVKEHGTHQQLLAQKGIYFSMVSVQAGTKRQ

Question: For `OC(Cn1cncn1)(Cn1cncn1)c1ccc(F)cc1F` [FLUCONAZOLE], which Activity is on record?
Answer: is not an inhibitor [-]
